Data on five compounds can be found in paper PMC6018958 (ACS Omega, 2017).

The target of experiment [1] is T1, EGFR^L858R (Homo sapiens, UniProt P00533, L858R). The experiment can be described thus: biochemical.
Experiment [2] has as its target T2, EGFR^WT (Homo sapiens, UniProt P00533). The experiment can be described thus: biochemical.
The target of experiment [3] is T3, EGFR^L858R/T790M (Homo sapiens, UniProt P00533, L858R/T790M). The experiment can be described thus: biochemical.
The target in experiment [4] is T3, EGFR^L858R/T790M. The experiment can be described thus: Kinetic characterization. The format is biochemical.
In experiment [5] the target is T2, EGFR^WT. In words: Kinetic characterization. It counts as biochemical.
In experiment [6] the target is T1, EGFR^L858R. In words: Kinetic characterization. It counts as biochemical.
Experiment [7] has as its target EGFR^T790M (Homo sapiens, UniProt P00533, T790M). The experiment can be described thus: SelectScreen kinase profiling. The format is biochemical.
Experiment [8] deals with kinases that harbor a cysteine comparable to C797 in the hinge region. In words: SelectScreen kinase profiling. It counts as biochemical. The following applies: compound concentration 1 μM; almost all cysteine-containing kinases (Table S1).
Experiment [9] addresses T3, EGFR^L858R/T790M. The experiment can be described thus: SelectScreen kinase profiling.

SMILES strings stand for the structures.

The term IC50 denotes the concentration at which inhibition is half-maximal. Usually Ki stands for a dissociation constant, usually derived from enzyme kinetics or from competition with a known ligand. A lower Ki goes with a stronger hold on the target. Usually kinact stands for the rate constant of inactivation at saturating inhibitor. What is called kinact/KI is the second-order rate constant of inactivation. As a reminder, the inhibition is the share of the control response that was lost under treatment. A low value points to a weak effect.

T1 sequence (P00533 25-1210 L858R): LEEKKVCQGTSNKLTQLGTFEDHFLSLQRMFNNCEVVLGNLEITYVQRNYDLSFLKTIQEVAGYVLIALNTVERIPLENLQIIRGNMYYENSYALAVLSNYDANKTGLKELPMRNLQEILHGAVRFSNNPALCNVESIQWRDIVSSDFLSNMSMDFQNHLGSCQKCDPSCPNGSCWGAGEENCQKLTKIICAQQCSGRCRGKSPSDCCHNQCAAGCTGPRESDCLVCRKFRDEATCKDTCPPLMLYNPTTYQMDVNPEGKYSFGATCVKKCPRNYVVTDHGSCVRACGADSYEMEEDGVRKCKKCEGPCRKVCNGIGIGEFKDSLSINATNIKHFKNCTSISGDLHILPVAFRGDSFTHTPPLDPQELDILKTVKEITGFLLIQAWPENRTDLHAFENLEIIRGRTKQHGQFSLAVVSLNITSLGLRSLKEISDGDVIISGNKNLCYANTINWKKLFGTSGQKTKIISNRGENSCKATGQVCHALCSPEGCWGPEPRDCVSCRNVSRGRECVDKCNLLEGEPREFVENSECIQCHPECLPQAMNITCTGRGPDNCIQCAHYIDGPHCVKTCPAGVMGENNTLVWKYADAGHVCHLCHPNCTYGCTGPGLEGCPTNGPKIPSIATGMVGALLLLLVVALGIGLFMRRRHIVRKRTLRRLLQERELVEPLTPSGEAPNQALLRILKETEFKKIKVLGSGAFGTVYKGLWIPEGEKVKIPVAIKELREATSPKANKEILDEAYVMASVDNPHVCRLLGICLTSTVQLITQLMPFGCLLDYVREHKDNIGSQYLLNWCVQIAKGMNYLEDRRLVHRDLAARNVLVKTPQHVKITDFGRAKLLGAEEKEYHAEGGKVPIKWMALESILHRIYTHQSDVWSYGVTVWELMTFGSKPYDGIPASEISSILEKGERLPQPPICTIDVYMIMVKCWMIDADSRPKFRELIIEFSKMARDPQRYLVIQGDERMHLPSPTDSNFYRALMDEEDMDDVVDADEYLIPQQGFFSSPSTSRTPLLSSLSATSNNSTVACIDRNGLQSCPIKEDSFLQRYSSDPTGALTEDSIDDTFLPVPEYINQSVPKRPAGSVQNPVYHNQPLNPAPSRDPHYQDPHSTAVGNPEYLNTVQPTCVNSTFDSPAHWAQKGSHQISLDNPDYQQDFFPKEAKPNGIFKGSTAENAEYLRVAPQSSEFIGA
T2 sequence (P00533 25-1210): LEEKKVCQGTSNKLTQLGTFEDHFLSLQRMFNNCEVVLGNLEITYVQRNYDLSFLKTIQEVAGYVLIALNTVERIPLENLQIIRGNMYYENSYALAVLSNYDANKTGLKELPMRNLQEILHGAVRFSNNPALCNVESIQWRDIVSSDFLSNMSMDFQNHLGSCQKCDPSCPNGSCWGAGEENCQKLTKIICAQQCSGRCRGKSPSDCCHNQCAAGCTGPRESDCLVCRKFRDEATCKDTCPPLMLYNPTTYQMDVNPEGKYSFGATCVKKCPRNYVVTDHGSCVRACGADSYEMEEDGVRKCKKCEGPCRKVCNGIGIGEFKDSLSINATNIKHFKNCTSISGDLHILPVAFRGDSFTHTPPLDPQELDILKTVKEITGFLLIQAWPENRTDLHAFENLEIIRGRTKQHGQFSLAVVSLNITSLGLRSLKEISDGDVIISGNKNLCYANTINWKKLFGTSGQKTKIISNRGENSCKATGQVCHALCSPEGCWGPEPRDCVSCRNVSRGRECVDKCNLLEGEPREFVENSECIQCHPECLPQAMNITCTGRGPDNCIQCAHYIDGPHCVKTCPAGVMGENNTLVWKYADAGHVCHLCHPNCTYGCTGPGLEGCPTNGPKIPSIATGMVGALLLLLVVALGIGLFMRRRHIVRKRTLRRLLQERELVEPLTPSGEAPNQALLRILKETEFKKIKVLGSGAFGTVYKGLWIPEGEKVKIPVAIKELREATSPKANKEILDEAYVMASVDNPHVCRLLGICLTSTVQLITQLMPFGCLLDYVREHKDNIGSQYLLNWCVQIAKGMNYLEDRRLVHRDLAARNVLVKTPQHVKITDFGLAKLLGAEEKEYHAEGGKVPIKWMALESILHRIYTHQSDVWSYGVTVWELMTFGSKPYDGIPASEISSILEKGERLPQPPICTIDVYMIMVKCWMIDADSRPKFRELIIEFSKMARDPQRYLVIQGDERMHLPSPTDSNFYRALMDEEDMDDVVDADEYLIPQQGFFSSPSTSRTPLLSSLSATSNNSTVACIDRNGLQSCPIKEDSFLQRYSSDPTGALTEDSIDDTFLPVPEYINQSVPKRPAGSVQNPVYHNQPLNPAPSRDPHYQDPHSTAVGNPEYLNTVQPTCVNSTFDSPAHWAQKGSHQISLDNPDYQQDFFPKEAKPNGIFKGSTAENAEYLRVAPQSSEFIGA
T3 sequence (P00533 25-1210 T790M/L858R): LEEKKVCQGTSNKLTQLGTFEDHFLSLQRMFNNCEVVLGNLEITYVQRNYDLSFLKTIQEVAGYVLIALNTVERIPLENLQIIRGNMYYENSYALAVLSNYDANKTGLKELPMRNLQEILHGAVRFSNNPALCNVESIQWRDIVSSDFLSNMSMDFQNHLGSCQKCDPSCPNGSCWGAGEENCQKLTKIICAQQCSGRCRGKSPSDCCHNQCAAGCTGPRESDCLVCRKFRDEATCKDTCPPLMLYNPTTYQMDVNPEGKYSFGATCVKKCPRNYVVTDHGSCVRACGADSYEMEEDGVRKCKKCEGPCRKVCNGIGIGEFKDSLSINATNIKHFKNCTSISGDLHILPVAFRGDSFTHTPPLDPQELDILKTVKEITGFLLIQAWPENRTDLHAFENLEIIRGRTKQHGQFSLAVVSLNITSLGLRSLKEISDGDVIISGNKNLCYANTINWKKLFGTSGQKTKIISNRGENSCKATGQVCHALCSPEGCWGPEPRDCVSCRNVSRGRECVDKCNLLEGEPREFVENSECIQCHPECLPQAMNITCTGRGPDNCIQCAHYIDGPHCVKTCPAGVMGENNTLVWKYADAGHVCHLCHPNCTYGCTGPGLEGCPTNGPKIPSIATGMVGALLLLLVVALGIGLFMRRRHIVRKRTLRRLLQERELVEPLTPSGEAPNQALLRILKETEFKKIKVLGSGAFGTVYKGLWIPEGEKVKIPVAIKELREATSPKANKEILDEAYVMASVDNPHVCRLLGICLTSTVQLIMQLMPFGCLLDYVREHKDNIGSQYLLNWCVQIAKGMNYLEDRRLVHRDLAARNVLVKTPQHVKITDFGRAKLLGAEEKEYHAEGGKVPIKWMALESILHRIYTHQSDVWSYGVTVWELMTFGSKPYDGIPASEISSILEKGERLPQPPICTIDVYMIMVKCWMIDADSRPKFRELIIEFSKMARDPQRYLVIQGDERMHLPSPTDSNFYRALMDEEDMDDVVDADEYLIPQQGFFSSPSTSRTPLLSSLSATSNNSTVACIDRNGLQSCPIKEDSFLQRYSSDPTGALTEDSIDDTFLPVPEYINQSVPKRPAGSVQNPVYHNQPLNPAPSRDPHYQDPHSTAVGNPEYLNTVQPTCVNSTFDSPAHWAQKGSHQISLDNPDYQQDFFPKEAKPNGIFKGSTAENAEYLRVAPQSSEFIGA
EGFR^T790M, sequence (P00533 25-1210 T790M): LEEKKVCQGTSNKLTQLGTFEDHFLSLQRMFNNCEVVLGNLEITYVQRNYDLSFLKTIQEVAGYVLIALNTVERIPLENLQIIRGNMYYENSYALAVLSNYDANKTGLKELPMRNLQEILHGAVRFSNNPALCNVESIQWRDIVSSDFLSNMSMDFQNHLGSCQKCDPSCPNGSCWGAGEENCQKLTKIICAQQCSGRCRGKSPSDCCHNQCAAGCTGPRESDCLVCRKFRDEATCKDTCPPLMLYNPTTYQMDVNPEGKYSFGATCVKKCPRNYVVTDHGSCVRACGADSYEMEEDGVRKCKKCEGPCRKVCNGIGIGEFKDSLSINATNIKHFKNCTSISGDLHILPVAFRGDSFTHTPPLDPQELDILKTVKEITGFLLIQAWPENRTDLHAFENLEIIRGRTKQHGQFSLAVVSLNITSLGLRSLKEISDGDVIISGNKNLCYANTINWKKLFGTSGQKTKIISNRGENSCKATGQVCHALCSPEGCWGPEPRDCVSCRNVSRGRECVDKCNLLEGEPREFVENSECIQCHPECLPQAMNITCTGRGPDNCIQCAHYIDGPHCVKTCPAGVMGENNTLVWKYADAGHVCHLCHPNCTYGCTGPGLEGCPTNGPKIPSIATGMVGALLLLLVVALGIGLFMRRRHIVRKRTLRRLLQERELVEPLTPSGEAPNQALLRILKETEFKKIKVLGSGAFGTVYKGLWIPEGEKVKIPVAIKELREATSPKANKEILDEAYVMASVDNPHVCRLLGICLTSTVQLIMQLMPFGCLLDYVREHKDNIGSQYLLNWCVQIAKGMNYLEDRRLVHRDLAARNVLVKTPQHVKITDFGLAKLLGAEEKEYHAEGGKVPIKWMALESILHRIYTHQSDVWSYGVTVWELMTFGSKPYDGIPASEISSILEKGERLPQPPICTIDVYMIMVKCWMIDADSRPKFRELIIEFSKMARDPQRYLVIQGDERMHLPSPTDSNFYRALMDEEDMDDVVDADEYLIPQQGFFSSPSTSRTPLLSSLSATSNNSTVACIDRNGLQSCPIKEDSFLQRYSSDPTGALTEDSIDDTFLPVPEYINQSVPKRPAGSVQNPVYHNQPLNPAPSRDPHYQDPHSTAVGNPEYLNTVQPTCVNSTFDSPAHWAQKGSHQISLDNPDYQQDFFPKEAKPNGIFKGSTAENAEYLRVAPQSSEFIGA

`N#C/C(=C\C1CC1)C(=O)N1CCC[C@@H](n2nc(-c3ccccc3)c3c(N)ncnc32)C1` [1a, (R,E)-2-(3-(4-Amino-3-phenyl-1H-pyrazolo[3,4-d]pyrimidin-1-yl)piperidine-1-carbonyl)-3-cyclopropylacrylonitrile]: the IC50 came out at 229 ± 62 nM in [1], 5380 ± 3890 nM in [2] and 4540 ± 543 nM in [3].
On the same counts, the results for `N#C/C(=C\C1CC1)C(=O)N1CCC[C@@H](n2nc(-c3cccc(C(F)(F)F)c3)c3c(N)ncnc32)C1` [1b, (R,E)-2-(3-(4-Amino-3-(3-(trifluoromethyl)phenyl)-1H-pyrazolo[3,4-d]pyrimidin-1-yl)piperidine-1-carbonyl)-3-cyclopropylacrylonitrile] are 385 ± 207 nM, more than 10000 nM and 2540 ± 420 nM.
On to `N#C/C(=C\C1CC1)C(=O)N1CCC[C@@H](n2nc(-c3cccc4ccccc34)c3c(N)ncnc32)C1` [1c, (R,E)-2-(3-(4-Amino-3-(naphthalen-1-yl)-1H-pyrazolo[3,4-d]pyrimidin-1-yl)piperidine-1-carbonyl)-3-cyclopropylacrylonitrile], for which the IC50 is 102 ± 75 nM in experiment [2] and 80 ± 51 nM in [3]. The Ki came out at 15 ± 3 nM in experiment [4], 64 ± 1 nM in experiment [5] and 14 ± 2 nM in [6]. The kinact in experiment [4] was 0.00183 s⁻¹; in [5], 0.0005 s⁻¹; in [6] it was 0.000667 s⁻¹. The values for the kinact/KI in experiment [4], in experiment [5] and in [6] were 730000 ± 160000 M⁻¹ s⁻¹, 10000 ± 10000 M⁻¹ s⁻¹ and 680000 ± 250000 M⁻¹ s⁻¹, respectively.
Consider `N#C/C(=C\C1CC1)C(=O)N1CCC[C@@H](n2nc(-c3cnc4[nH]ccc4c3)c3c(N)ncnc32)C1` [1d, (R,E)-2-(3-(4-Amino-3-(1H-pyrrolo[2,3-b]pyridin-5-yl)-1H-pyrazolo[3,4-d]pyrimidin-1-yl)piperidine-1-carbonyl)-3-cyclopropylacrylonitrile], for which the IC50 in experiment [1] worked out at 10 ± 8 nM; in experiment [2], 96 ± 26 nM; in experiment [3] it was 20 ± 13 nM. Further, the figures for the Ki in experiment [4], in experiment [5] and in [6] were 51 ± 2 nM, 265 ± 1 nM and 37 ± 6 nM, respectively. For the same compound, the kinact in experiment [4] was 0.00283 s⁻¹; in experiment [5] it was 0.000667 s⁻¹; in experiment [6] it was 0.003 s⁻¹. For the same compound, the figures for the kinact/KI in experiment [4], in experiment [5] and in experiment [6] were 50000 ± 20000 M⁻¹ s⁻¹, 10000 ± 10000 M⁻¹ s⁻¹ and 200000 ± 10000 M⁻¹ s⁻¹, respectively. In addition, the inhibition at 1 µM in [7] and in [9] was approximately 90% throughout. The inhibition result in experiment [8] was “more than 50%”.
On to `Cn1cc(-c2nn([C@@H]3CCCN(C(=O)/C(C#N)=C/C4CC4)C3)c3ncnc(N)c23)c2ccccc21` [1e, (R,E)-2-(3-(4-Amino-3-(1-methyl-1H-indol-3-yl)-1H-pyrazolo[3,4-d]pyrimidin-1-yl)piperidine-1-carbonyl)-3-cyclopropylacrylonitrile], for which the IC50 came out at 85 ± 34 nM in experiment [1], 338 ± 69 nM in experiment [2] and 213 ± 49 nM in [3]. Further, the Ki worked out at 83 ± 10 nM in experiment [4], 1670 ± 450 nM in [5] and 79 ± 9 nM in [6]. Moreover, the figures for the kinact in [4], in experiment [5] and in experiment [6] were 0.00217 s⁻¹, 0.00283 s⁻¹ and 0.002 s⁻¹, respectively. Further, the kinact/KI in [4] turned out to be 360000 ± 20000 M⁻¹ s⁻¹; in experiment [5], 10000 ± 10000 M⁻¹ s⁻¹; in experiment [6], 260000 ± 70000 M⁻¹ s⁻¹.
